In general, IC50 refers to the concentration that gives 50% inhibition.

Values joined by “and” are separate entries in the source; they are usually repeats but may differ in a detail not shown here. Identical values can stand only once.

Test [1] relates to Staphylococcus aureus (ATCC25923). In words: Microdilution MIC assay (CLSI-based), S. aureus. The format is cell-based. The settings on record: Staphylococcus aureus, ATCC25923, 20 h, 20 hours incubation at 35-37° C., MHB; read-out: Minimum inhibitory concentration S. aureus ATCC25923. How it is done:
(§1) The antibacterial activity of compounds was measured using a standard microdilution assay based on the Clinical and Laboratory Standards Institute (CLSI) guidelines. This method was slightly modified. Indeed, assay volumes were increased to 200 μL to improve reproducibility. The chemical compounds to be tested were in the form of salts for biological testing.
(§2) Bacteria tested: Antibacterial activities of the compounds were tested on Staphylococcus aureus (ATCC25923), Enterococcus faecalis (ATCC29212), Escherichia coli ([…]) and Pseudomonas aeruginosa (ATCC27853).
(§3) Preparation of the Preculture: Mueller Hinton Agar plates were inoculated with frozen biological strain in order to obtain separate colonies and the plates were incubated during 24 h at 35-37° C. 3 colonies of similar aspect were picked out, resuspended in 5 mL of fresh Mueller Hinton broth 1× (MHB) and incubated with shaking (160 rpm) at 35-37° C. overnight.
(§4) 0.1 mL of bacteria in exponential phase were suspended in 9.9 mL of MHB (1:100 dilution). 0.1 mL of the 1:100 dilution were dispensed into the wells of microplates containing 0.1 ml of serial compounds dilutions to yield ca. 5×10^5 CFU/mL. In parallel, the stocks solutions of chemical compounds were first diluted in appropriate solvent to a final concentration of 5 mg/mL. 8 μL were dispended into the first wells of the microplates containing 0.1 ml of sterile broth and a 0.5 cascade dilution was performed in MHB from 0.2 mg/mL. One control was made for each strain tested. […] Tests were performed in triplicate.
(§5) Reading of the Results: After incubation, the filter was replaced with a transparent film, and an optical density reading was then taken in an iEMS plate spectrophotometer at 620 nm. Calculation of the minimum inhibitory concentration (MIC) was performed.
Background: Dilution methods test growth across graded concentrations, often in twofold steps.

The test system of test [2] is Enterococcus faecalis (ATCC29212). The test can be described thus: Microdilution MIC assay (CLSI-based), E. faecalis. The format is cell-based. The settings on record: Enterococcus faecalis, ATCC29212, 20 h, 20 hours incubation at 35-37° C., MHB; read-out: Minimum inhibitory concentration E. faecalis ATCC29212. How it is done:
as §1, §2, §3, §4, §5

In test [3] the test system is Escherichia coli (ATCC28922). In words: Microdilution MIC assay (CLSI-based), E. coli. The class given is cell-based. The conditions noted are these: Escherichia coli, ATCC28922, 20 h, 20 hours incubation at 35-37° C., MHB; read-out: Minimum inhibitory concentration E. coli ATCC28922. How it is done:
as §1, §2, §3, §4, §5

Test [4] has as its system Pseudomonas aeruginosa (ATCC27853). The test can be described thus: Microdilution MIC assay (CLSI-based), P. aeruginosa. The class given is cell-based. The settings on record: Pseudomonas aeruginosa, ATCC27853, 20 h, 20 hours incubation at 35-37° C., MHB; read-out: Minimum inhibitory concentration P. aeruginosa ATCC27853. How it is done:
as §1, §2, §3, §4, §5

The test system of a further test is CHO-K1 cells. The test can be described thus: WST1 cytotoxicity test. The conditions noted are these: Cricetulus griseus, CHO-K1, 24 h, WST1, 24 hours at 37° C.; read-out: IC50 CHO. The class given is cell-based, Chinese hamster. An excerpt: Cytotoxicity: The test WST1 was used to measure the cytotoxic activity of the compounds of the invention. The test WST1 is a colorimetric test allowing to measure the viability and the degree of cell proliferation. It is based on cleavage of the colorless tetrazolium salts WST-1 (4—[3-(4-iodophenyl)-2-(4-nitrophenyl)-2H-5-tetrazolio]-1,3-benzene disulfonate) with mitochondrial dehydrogenases to the yellow-colored formazan derivative, which may be quantified by spectrophotometry at 420-480 nm. The WST1 test was performed on Chinese hamster ovary (CHO) cells. The CHO-K1 cells (ATCC, USA) were kept in culture in McCoy's 5A medium supplemented with 10% fetal calf serum, 2 mM of L-glutamine and a mixture of penicillin-streptomycin (100 U/ml: 10 μg/mL). The culture was incubated at 37° C. under an atmosphere enriched in CO2 (5%), and subcultured every two days. The cells were transferred into 96-well plates (25,000 cells/mL) in whole McCoy's 5A medium, and maintained for 24 hours at 37° C. under a humid atmosphere enriched in CO2 (5%). Increasing concentrations of tested compounds were added to the wells, each compound was tested in replicates and 8 growth controls containing the cells in the medium alone were included in each series of tests. After 24 hours at 37° C. (5% CO2), the culture medium was removed, the cells were rinsed in phosphate buffer (PBS) and 50 μL of PBS containing 10% of reagent WST1 were added to each well. After 20 minutes of incubation at 37° C., the results were read by spectrophotometry at 450 nm. The results are expressed in dose-response relationships, modeled by nonlinear regression analysis using the TableCurve software.
Cytotoxicity: The same WST1 test as described in Example 2 above was used.
(In general: Tetrazolium assays rely on reduction of a dye to a coloured formazan, in cell work by metabolically active cells.)

Consider `COC(=O)[C@@H](Cc1ccccc1)NC(=O)CC[C@@H](C)[C@H]1CCC2C3C(CC[C@@]21C)[C@@]1(C)CC[C@H](NCCCNCCCNCCCN)C[C@H]1C[C@H]3O` (stereo partly drawn) [Compound S022, methyl ((4R)-4-((3S,5S,7R,10S,13R,17R)-3-((3-((3-((3-aminopropyl)amino)propyl)amino)propyl)amino)-7-hydroxy-10,13-dimethylhexadecahydro-1H-cyclopenta[a]phenanthren-17-yl)pentanoyl)-D-phenylalaninate], for which the MIC in test [1] was 12.5 µM and 8 µg/mL; in test [2], 25 µM and 16 µg/mL; in test [3], 12.5 µM and 8 µg/mL; in test [4], 12.5 µM and 8 µg/mL. Moreover, the IC50 in the test with CHO-K1 cells was 17.1 µM and 12.4 µg/mL.

In the case of `COC(=O)[C@H](Cc1ccccc1)NC(=O)CC[C@@H](C)[C@H]1CCC2C3C(CC[C@@]21C)[C@@]1(C)CC[C@H](NCCNCCN)C[C@H]1C[C@H]3O` (stereo partly drawn) [Compound S024, methyl ((4R)-4-((3S,5S,7R,10S,13R,17R)-3-((2-((2-aminoethyl)amino)ethyl)amino)-7-hydroxy-10,13-dimethylhexadecahydro-1H-cyclopenta[a]phenanthren-17-yl)pentanoyl)-L-phenylalaninate], the MIC in test [1] was 25 µM and 16 µg/mL; in test [2] it was 25 µM and 16 µg/mL; in test [3], 25 µM and 16 µg/mL; in test [4] it was 100 µM and 64 µg/mL. Moreover, the IC50 in the test with CHO-K1 cells was 83.7 µM and 53.5 µg/mL.

Take `COC(=O)[C@H]1CCCN1C(=O)CC[C@@H](C)[C@H]1CCC2C3C(CC[C@@]21C)[C@@]1(C)CC[C@H](NCCCNCCCN)C[C@H]1C[C@H]3O` (stereo partly drawn) [Compound S045, methyl ((4R)-4-((3S,5S,7R,10S,13R,17R)-3-((3-((3-aminopropyl)amino)propyl)amino)-7-hydroxy-10,13-dimethylhexadecahydro-1H-cyclopenta[a]phenanthren-17-yl)pentanoyl)-D-prolinate]: the MIC is 2 µg/mL and 3.13 µM in test [1]; 4 µg/mL and 6.25 µM in test [2]; 4 µg/mL and 6.25 µM in test [3]; 16 µg/mL and 25 µM in test [4]. Also, in the test on CHO-K1 cells, the IC50 is 7.77 µg/mL and 12.6 µM.

As for `CC[C@@H](C)[C@H](NC(=O)CC[C@@H](C)[C@H]1CCC2C3C(CC[C@@]21C)[C@@]1(C)CC[C@H](NCCCNCCCN)C[C@H]1C[C@H]3O)C(=O)OC` (stereo partly drawn) [Compound S050, methyl (2S,3R)-2-((4R)-4-((3S,5S,7R,10S,13R,17R)-3-((3-((3-aminopropyl)amino)propyl)amino)-7-hydroxy-10,13-dimethylhexadecahydro-1H-cyclopenta[a]phenanthren-17-yl)pentanamido)-3-methylpentanoate], the MIC in test [1] was 3.12 µM and 2 µg/mL; in test [2], 25 µM and 16 µg/mL; in test [3], 12.5 µM and 8 µg/mL; in test [4], 50 µM and 32 µg/mL. The IC50 in the test on CHO-K1 cells was 10.5 µM and 6.63 µg/mL.

(Values after US20260250312A1, “ANTIBACTERIAL COMPOUNDS ELIMINATING DORMANT BACTERIAL CELLS” (UNIVERSITÉ D'AIX-MARSEILLE, priority 2022, published 2026).)
